{"source": "paper PMC10746189", "about": "“Campylobacter jejuni uses energy taxis and a dehydrogenase enzyme for L-fucose chemotaxis” (mBio, 2023)", "target": "T1, FucX (Campylobacter jejuni, UniProt Q0PB28)", "T1 construct": "gene Cj0485; His-tagged FucX from pET30a(+)-fucX, expressed in E. coli BL21, Ni-NTA purified, desalted", "T1 sequence (Q0PB28 entry or part of it)": "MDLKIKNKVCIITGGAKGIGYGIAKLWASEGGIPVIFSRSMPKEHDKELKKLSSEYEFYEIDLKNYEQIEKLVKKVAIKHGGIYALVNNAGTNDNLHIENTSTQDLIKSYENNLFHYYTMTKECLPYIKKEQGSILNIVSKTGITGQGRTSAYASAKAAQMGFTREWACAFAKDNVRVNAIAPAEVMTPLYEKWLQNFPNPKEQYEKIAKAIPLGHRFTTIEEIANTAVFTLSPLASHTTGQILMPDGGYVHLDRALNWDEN", "assay": "dehydrogenase assay, NADPH absorbance at […] nm", "type": "biochemical", "conditions": "5 nM protein; 1 mM L-fucose; 100 µM NADP+; 1 mM MgCl2; 50 mM Tris-HCl pH 7.5; room temperature"}
{"compound": "C[C@@H]1OC(O)[C@@H](O)[C@H](O)[C@@H]1O", "note": "(stereo partly drawn) [L-fucose]", "values": [{"measurement": "dehydrogenase assay, NADPH absorbance at 340 nm", "value": "L-Fucose dehydrogenase activity of indicated FucX pure proteins: (+), with L-fucose; (−), no L-fucose."}]}
